Measurements published in patent publication US20030203963A1, “Antimicrobial agent” (priority 2001, published 2003).

What was measured:
[1] = system: Byssochlamys fulva 040021; assay: Test in apple juice; format: cell-based; settings: apple juice (pH 3.42) at 25° C., TAJ010530
Description: (§1) 8.9 ml apple juice samples (pH 3.42) were prepared and autoclaved. Batch number APP20010215 (at 138 mg/ml) was used to prepare filter-sterilised stock solutions for 1 ml addition to the juice to achieve 0, 1000, 2000 ppm APP. Tests were inoculated with 100 μl of an appropriately diluted overnight SLM broth of yeast culture or ascospore suspension of Byssochlamys spores prepared earlier. The tests were incubated at 25° C., and examined daily for signs of growth (e.g. turbidity, mycelium development).

[2] = system: Zygosaccharomyces bailii CRA229; assay: Test in apple juice; format: cell-based; settings: for Growth controlled for: apple juice (pH 3.42) at 25° C., TAJ010530
Description: as §1

[3] = system: Rhodotorula mucilaginosa var mucilaginosa CBS8161; assay: Test in apple juice; format: cell-based; settings: for Growth inhibition: apple juice (pH 3.42) at 25° C., TAJ010530
Description: as §1

[4] = system: Candida parapsilosis 458; assay: Test in apple juice; format: cell-based; settings: apple juice (pH 3.42) at 25° C., TAJ010530
Description: as §1

[5] = system: L. monocytogenes 272; assay: Chicken soup trial at 20° C.; format: cell-based, Listeria monocytogenes; settings: chicken soup at 20° C., TCSM010430, APP20010213
Text: A local supermarket brand of cream of chicken soup was used as a model food system. 600 g packs were purchased from the local supermarket. This was a ‘fresh home-made type’ of soup that was stored in the chill cabinet, with a short shelf life. It was chosen because it is a rich, nutritious food system containing a range of food components including meat, dairy and vegetable.
Ingredients were labelled as: chicken stock (water, duck fat, chicken, salt, flavourings, yeast extracts, pork gelatine, glucose syrup, vegetable concentrate, milk protein, sugar, malto-dextrin, vegetable oil, citric acid, lactose, chicken fat), ilk, chicken (9%), cream (8%), onion, potato, vegetable oil, modified maize starch, wheat flour, lemon juice, salt, white pepper. pH 5.912. Protein: 3.3%; carbohydrate: 4.7%; fat: 7.2%; fibre: 0.2%; sodium: 0.1%
For the test the soup was mixed 2:1 in water (to facilitate sampling and mixing) and sterilised by autoclaving at 121° C. for 15 minutes. For each experiment the pH of the soup was recorded; this was between pH 5.79-5.88.
For TCS010430/20 (incubated at 20° C.) samples were prepared in 18.8 g quantities, to which 1 g of a suitable filter-sterilised APP stock solution was added and an appropriately diluted 0.2 ml inoculum. Great care was again taken to ensure homogeneous distribution of the APP and micro-organisms. […]

[6] = system: Br. thermosphacta CRA78883; assay: Test in cooked minced beef slurry; format: cell-based, Brochothrix thermosphacta; settings: 2000 ppm; minced beef slurry at 8° C., pH 6.24, TCM010619
Description: (§2) 1 kg of minced beef, purchased from the local butcher, was mixed with 1 litre of BHI. 200 g portion of this meat slurry was autoclaved. When the meat had cooled, the pH was recorded (pH 6.24), and each pot was inoculated with 2.0 ml of 10^5 spores or cells and the meat re-mixed thoroughly. Each inoculated 200 g pot was distributed as 3×50 g portions. To each pot 1 ml of SDW, 5% or 10% APP (Batch No. APP20010215) was added, and the meat was again mixed thoroughly. An initial viable count was performed, the meat was incubated at 8° C. and sampled twice weekly. The pH of the cooked minced beef slurry was 6.24.

[7] = system: Salmonella spp; assay: Lab media at optimum temperature (summary); format: cell-based
Description: (§3) For broth cultures and Bioscreen testing most bacteria were grown in Brain Heart Infusion (BHI, Oxoid, pH 7.4). Lactobacillus sake A10 was grown in de Man, Rogosa, Sharpe medium ([…], Oxoid). Yeasts were grown in Sabouraud Liquid medium (SLM, Oxoid). Most bacteria were cultured at 30° C. Lactic acid bacteria were grown on solid medium in enriched CO2 atmosphere. Clostridium species were grown in Reinforced Clostridial Medium (RCM) at 37° C. anaerobically. Brochothrix thermosphacta fungi and yeasts were grown at 25° C. Fungi were cultured on Malt Extract Agar (MEA, Oxoid).
(§4) An automated Microbiology Reader Bioscreen C was used to measure growth curves of the strains in the presence and absence of APP. The Bioscreen C measures the development of turbidity (i.e. growth) kinetically by vertical photometry in 200 wells of a honeycomb microtitre plate, simultaneously. The system consists of a Bioscreen C analyser, which is an incubator and measurement unit, integrated with a PC, software (BioLink v 5.30), printer and a ‘Honeycomb 2’ cuvette multiwell plate. Growth curve data can be analysed within the BioLink software or exported to programs such as Excel.
(§5) Broth culture media were dispensed in 270 μl volumes into the wells as directed. Serial dilutions of a filter-sterilised APP stock solution were then dispensed into the same wells, as appropriate. The wells were inoculated with 30 μl of an appropriately diluted overnight broth culture or spore suspension, to give a final inoculum level of […]. The tests were incubated in the Bioscreen C for either 24 h at 30° C., or 72 h at 25° C. (depending on the micro-organism under investigation) with readings taken every 20 minutes after the trays were shaken. After the incubation period was complete the data were exported to Excel for analysis.

[8] = system: Most yeasts; assay: Lab media at optimum temperature (summary); format: cell-based
Description: as §3, §4, §5

[9] = system: B. cereus 204; assay: Test in cooked minced beef slurry; format: cell-based, Bacillus cereus; settings: minced beef slurry at 8° C., pH 6.24, TCM010619
Description: as §2

[10] = system: Br. thermosphacta; assay: Test in milk; format: cell-based, Brochothrix thermosphacta; settings: 2000 ppm, TMGB010605
Description: 8.9 ml samples of UHT milk containing 0.5% glucose and the indicator bromocresol purple (0.01%) were prepared and sterilised by autoclaving. The pH before APP addition was pH 6.65. Appropriate stock solutions of APP batch number APP20010215 (at 138 mg/ml) were prepared and filter sterilised. 1 ml of each was added to the milk to prepare tests containing 0, 1000 and 2000 ppm APP. Tests were then inoculated with 100 μl of diluted overnight broth cultures or spore suspensions to give a final inoculum level of ca. 10^3 cfu/ml. These and uninoculated tests were incubated at 20 and 8° C. and examined daily for visible changes compared to uninoculated control.

[11] = system: Ps. fluorescens; assay: Lab media at optimum temperature (summary); format: cell-based, Pseudomonas fluorescens
Description: as §3, §4
Broth culture media were dispensed in 270 μl volumes into the wells as directed. […] (depending on the micro-organism under investigation) with readings taken every 20 minutes after the trays were shaken. […]

[12] = cited from earlier work

Structure (SMILES): O=C1CC(CO)OC=C1O (centres unmarked) [APP, Ascopyrone P]
- Growth inhibition ([1]; 1000 ppm): No growth inhibition
- Growth inhibition ([1]; 2000 ppm): No growth inhibition
- Growth controlled for ([2]; 1000 ppm): 34 days
- Growth controlled for ([2]; 2000 ppm): 34 days
- Partial inhibition (effect on growth of target organism by 2000 ppm APP) ([2]; Apple juice at ambient pH 3.4): Z. bailii
- Growth inhibition ([3]; 1000 ppm): No growth inhibition
- Growth inhibition ([3]; 2000 ppm): No growth inhibition
- No inhibition (effect on growth of target organism by 2000 ppm APP) ([3]; Apple juice at ambient pH 3.4): Rh. mucilaginosa
- Growth inhibition ([4]; 1000 ppm): No growth inhibition
- Growth inhibition ([4]; 2000 ppm): No growth inhibition
- Effect on growth ([5]; 1000 ppm): No significant effect by 1000 ppm
- Effect on growth ([5]; 2000 ppm): No total inhibition but reduction of growth rate only by 2000
- Effect on growth [6]: No effect with 2000 ppm
- Partial inhibition (effect on growth of target organism by 2000 ppm APP) [7]: Salmonella spp
- Effect on growth of target organism by 2000 ppm APP (remark in No inhibition column) [8]: (enhanced growth)
- No inhibition (effect on growth of target organism by 2000 ppm APP) [8]: Most yeasts
- Effect on growth ([9]; 1000 ppm): 1000 ppm extended lag phase.
- Growth to 10^6 delayed by ([9]; 2000 ppm): 2000 ppm delayed growth to 10^6 by 7 d.
- Control for ([10]; milk at 8° C.): 1 days
- Control of growth ([10]; milk at 20° C.): No control observed
- Total inhibition (effect on growth of target organism by 2000 ppm APP) [11]: Ps. fluorescens
- pH at which stable ([12]; less stable at increasing pH): 1.5-5.5
- half-life ([12]; pH 11-12.5): 5 h
